Patent US12662489B2 (Sitryx Therapeutics Limited, priority 2023, dated 2026)

What was measured:
[1] = biological target: T1, MTHFD2 recombinant human enzyme (Homo sapiens, UniProt P13995); assay: MTHFD2 inhibition assay (NAD(P)H-Glo luminescence); details: for MTHFD1/MTHFD2 IC50 ratio: selectivity of MTHFD2 inhibition over MTHFD1, band
T1 sequence (P13995 36-350): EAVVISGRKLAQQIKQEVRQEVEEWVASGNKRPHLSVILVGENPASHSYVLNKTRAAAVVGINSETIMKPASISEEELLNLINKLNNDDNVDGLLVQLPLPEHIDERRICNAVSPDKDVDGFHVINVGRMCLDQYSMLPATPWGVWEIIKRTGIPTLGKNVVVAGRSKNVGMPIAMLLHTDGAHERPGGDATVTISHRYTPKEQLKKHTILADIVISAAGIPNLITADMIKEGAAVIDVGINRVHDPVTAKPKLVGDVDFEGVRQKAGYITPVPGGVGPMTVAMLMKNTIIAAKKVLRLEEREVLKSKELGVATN

[2] = biological target: T2, MTHFD1 recombinant human enzyme (Homo sapiens, UniProt P11586); assay: MTHFD1 inhibition assay (NAD(P)H-Glo luminescence); details: MTHFD1 IC50, recombinant human enzyme 200 nM, NADP, band
T2 sequence (P11586 2-291 limits assumed): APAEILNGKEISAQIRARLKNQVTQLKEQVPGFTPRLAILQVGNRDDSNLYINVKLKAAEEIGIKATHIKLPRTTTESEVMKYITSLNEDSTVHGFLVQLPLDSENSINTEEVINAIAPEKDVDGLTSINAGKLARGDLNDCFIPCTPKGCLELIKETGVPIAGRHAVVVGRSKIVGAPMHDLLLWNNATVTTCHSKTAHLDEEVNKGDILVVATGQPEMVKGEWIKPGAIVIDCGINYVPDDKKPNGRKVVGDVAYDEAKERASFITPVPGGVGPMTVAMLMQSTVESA

| IC50 [1] [nM] | IC50 [2] [nM] | MTHFD1/MTHFD2 IC50 ratio [1] | SMILES |
| --- | --- | --- | --- |
| 10 to 100 | 100 to 1000 | – | CCOc1cc(C(=O)N2CCc3c(c(=O)oc4c(C)c(N5CCN(C)[C@@H](COC)C5)cc(Cl)c34)C2)c(F)cc1C(=O)NS(=O)(=O)N1CC2(CCC2)C1 [Example 300, (R)-N-((2-azaspiro[3.3]heptan-2-yl)sulfonyl)-4-(10-chloro-8-(3-(methoxymethyl)-4-methylpiperazin-1-yl)-7-methyl-5-oxo-1,3,4,5-tetrahydro-2H-chromeno[3,4-c]pyridine-3-carbonyl)-2-ethoxy-5-fluorobenzamide] |
| 1 to 10 | 100 to 1000 | J (>30) | COC[C@H]1CN(c2cc(Cl)c3c4c(c(=O)oc3c2C)CN(C(=O)c2cc(N(C)C)c(C(=O)NS(=O)(=O)N(C)C3CC3)cc2F)CC4)CCN1C [Example 323, (R)-4-(10-chloro-8-(3-(methoxymethyl)-4-methylpiperazin-1-yl)-7-methyl-5-oxo-1,3,4,5-tetrahydro-2H-chromeno[3,4-c]pyridine-3-carbonyl)-N-(N-cyclopropyl-N-methylsulfamoyl)-2-(dimethylamino)-5-fluorobenzamide] |
| 1 to 10 | 1 to 10 | F (<3) | COC[C@H]1CN(c2ccc3c4c(c(=O)oc3c2Cl)CN(C(=O)c2ccc(C(=O)NS(=O)(=O)C3(C)CC3)c(OC3CCCC3)c2F)CC4)CCN1C [Example 57, (R)-4-(7-chloro-8-(3-(methoxymethyl)-4-methylpiperazin-1-yl)-5-oxo-1,3,4,5-tetrahydro-2H-chromeno[3,4-c]pyridine-3-carbonyl)-2-(cyclopentyloxy)-3-fluoro-N-((1-methylcyclopropyl)sulfonyl)benzamide] |
| 1 to 10 | 10 to 100 | H (>9.0 to 30) | CCOc1c(C(=O)NS(=O)(=O)N2CCCC2)ccc(C(=O)N2CCc3c(c(=O)oc4c(C)c(N5CCN(C)[C@@H](COC)C5)cc(Cl)c34)C2)c1F [Example 258, (R)-4-(10-chloro-8-(3-(methoxymethyl)-4-methylpiperazin-1-yl)-7-methyl-5-oxo-1,3,4,5-tetrahydro-2H-chromeno[3,4-c]pyridine-3-carbonyl)-2-ethoxy-3-fluoro-N-(pyrrolidin-1-ylsulfonyl)benzamide] |
| 10 to 100 | 100 to 1000 | F (<3) | CCOc1c(C(=O)NS(=O)(=O)N2CC3CCC2C3)ccc(C(=O)N2CCc3c(c(=O)oc4c(C)c(N5CCN(C)[C@@H](COC)C5)ccc34)C2)c1F (some centres unmarked) [Example 230] |
| 10 to 100 | 10 to 100 | F (<3) | CCOc1c(C(=O)NS(=O)(=O)N2C[C@H]3CCC[C@H]3C2)ccc(C(=O)N2CCc3c(c(=O)oc4c(C)c(N5CCN(C)[C@@H](COC)C5)cc(C)c34)C2)c1F [Example 232] |
| 10 to 100 | 100 to 1000 | H (>9.0 to 30) | COC[C@H]1CN(c2cc(Cl)c3c4c(c(=O)oc3c2C)CN(C(=O)c2ccc(C(=O)NS(=O)(=O)N3CC5(CCC5)C3)c(OC)c2)CC4)CCN1C [Example 279, (R)-N-((2-azaspiro[3.3]heptan-2-yl)sulfonyl)-4-(10-chloro-8-(3-(methoxymethyl)-4-methylpiperazin-1-yl)-7-methyl-5-oxo-1,3,4,5-tetrahydro-2H-chromeno[3,4-c]pyridine-3-carbonyl)-2-methoxybenzamide] |
| 10 to 100 | 100 to 1000 | J (>30) | COC[C@H]1CN(c2cc(C)c3c4c(c(=O)oc3c2C)CN(C(=O)c2cc(N(C)C)c(C(=O)NS(=O)(=O)N3CCC[C@@H](OC)C3)cc2F)CC4)CCN1C [Example 286, 2-(dimethylamino)-5-fluoro-4-(8-((R)-3-(methoxymethyl)-4-methylpiperazin-1-yl)-7,10-dimethyl-5-oxo-1,3,4,5-tetrahydro-2H-chromeno[3,4-c]pyridine-3-carbonyl)-N-(((R)-3-methoxypiperidin-1-yl)sulfonyl)benzamide] |
| 10 to 100 | 100 to 1000 | G (^ 3 to 9.0) | COC[C@H]1CN(c2ccc3c4c(c(=O)oc3c2C)CN(C(=O)c2cc(N3CCC3)c(C(=O)NS(=O)(=O)N3CC5CC5C3)cc2F)CC4)CCN1C (stereo partly drawn) [Example 203, N-((3-azabicyclo[3.1.0]hexan-3-yl)sulfonyl)-2-(azetidin-1-yl)-5-fluoro-4-(8-((R)-3-(methoxymethyl)-4-methylpiperazin-1-yl)-7-methyl-5-oxo-1,3,4,5-tetrahydro-2H-chromeno[3,4-c]pyridine-3-carbonyl)benzamide] |

More lines, now with the values behind:

| SMILES | IC50 [1] [nM] | IC50 [2] [nM] | MTHFD1/MTHFD2 IC50 ratio [1] |
| --- | --- | --- | --- |
| COC[C@H]1CN(c2cc(C)c3c4c(c(=O)oc3c2C)CN(C(=O)c2cc(OC3CCC3)c(C(=O)NS(=O)(=O)N(C)C)cc2F)CC4)CCN1C [Example 93, (R)-2-cyclobutoxy-N-(N,N-dimethylsulfamoyl)-5-fluoro-4-(8-(3-(methoxymethyl)-4-methylpiperazin-1-yl)-7,10-dimethyl-5-oxo-1,3,4,5-tetrahydro-2H-chromeno[3,4-c]pyridine-3-carbonyl)benzamide] | 10 to 100 | 10 to 100 | G (^ 3 to 9.0) |
| COC[C@H]1CN(c2cc(C)c3c4c(c(=O)oc3c2C)CN(C(=O)c2ccc(C(=O)NS(=O)(=O)C3(C)CC3)c(N3C5CCC3CC5)c2)CC4)CCN1C [Example 48, (R)-2-(7-azabicyclo[2.2.1]heptan-7-yl)-4-(8-(3-(methoxymethyl)-4-methylpiperazin-1-yl)-7,10-dimethyl-5-oxo-1,3,4,5-tetrahydro-2H-chromeno[3,4-c]pyridine-3-carbonyl)-N-((1-methylcyclopropyl)sulfonyl)benzamide] | 1 to 10 | 1 to 10 | F (<3) |
| CCc1c(C(=O)NS(=O)(=O)N2C3CCC2CC3)ccc(C(=O)N2CCc3c(c(=O)oc4c(C)c(N5CCN(C)[C@@H](COC)C5)cc(C)c34)C2)c1F [Example 242] | 10 to 100 | 100 to 1000 | H (>9.0 to 30) |
| COC[C@H]1CN(c2ccc3c4c(c(=O)oc3c2C)CN(C(=O)c2ccc(C(=O)NS(=O)(=O)N3C5CCC3CC5)c(OC3CCC3)c2F)CC4)CCN1C [Example 176, (R)—N-((7-azabicyclo[2.2.1]heptan-7-yl)sulfonyl)-2-cyclobutoxy-3-fluoro-4-(8-(3-(methoxymethyl)-4-methylpiperazin-1-yl)-7-methyl-5-oxo-1,3,4,5-tetrahydro-2H-chromeno[3,4-c]pyridine-3-carbonyl)benzamide] | 10 to 100 | 10 to 100 | F (<3) |
| COC[C@H]1CN(c2cc(C)c3c4c(c(=O)oc3c2C)CN(C(=O)c2ccc(C(=O)NS(=O)(=O)N(C)C(C)C)c(O[C@@H]3C[C@@H]5C[C@@H]5C3)c2F)CC4)CCN1C [Example 36, 2-(((1R,3r,5S)-bicyclo[3.1.0]hexan-3-yl)oxy)-3-fluoro-N-(N-isopropyl-N-methylsulfamoyl)-4-(8-((R)-3-(methoxymethyl)-4-methylpiperazin-1-yl)-7,10-dimethyl-5-oxo-1,3,4,5-tetrahydro-2H-chromeno[3,4-c]pyridine-3-carbonyl)benzamide] | 1 to 10 | 1 to 10 | F (<3) |
| COC[C@H]1CN(c2ccc3c4c(c(=O)oc3c2C)CN(C(=O)c2ccc(C(=O)NS(=O)(=O)N(C)C(C)C)c(OC3CCC3)c2F)CC4)CCN1C [Example 56, (R)-2-cyclobutoxy-3-fluoro-N-(N-isopropyl-N-methylsulfamoyl)-4-(8-(3-(methoxymethyl)-4-methylpiperazin-1-yl)-7-methyl-5-oxo-1,3,4,5-tetrahydro-2H-chromeno[3,4-c]pyridine-3-carbonyl)benzamide] | 1 to 10 | 1 to 10 | F (<3) |
| COC[C@H]1CN(c2ccc3c4c(c(=O)oc3c2C)CN(C(=O)c2cc(OC3CCC3)c(C(=O)NS(=O)(=O)N3CCCC3)c(C(F)(F)F)c2)CC4)CCN1C [Example 133, (R)-2-cyclobutoxy-4-(8-(3-(methoxymethyl)-4-methylpiperazin-1-yl)-7-methyl-5-oxo-1,3,4,5-tetrahydro-2H-chromeno[3,4-c]pyridine-3-carbonyl)-N-(pyrrolidin-1-ylsulfonyl)-6-(trifluoromethyl)benzamide] | 100 to 1000 | 100 to 1000 | G (^ 3 to 9.0) |
| Cc1c(N2CCN3CCOC[C@H]3C2)cc(C)c2c3c(c(=O)oc12)CN(C(=O)c1ccc(C(=O)NS(=O)(=O)N2CCCC2)c(OC2CCC2)c1)CC3 [Example 21, (R)-2-cyclobutoxy-4-(8-(hexahydropyrazino[2,1-c][1,4]oxazin-8(1 H)-yl)-7,10-dimethyl-5-oxo-1,3,4,5-tetrahydro-2H-chromeno[3,4-c]pyridine-3-carbonyl)-N-(pyrrolidin-1-ylsulfonyl)benzamide] | 100 to 1000 | 100 to 1000 | F (<3) |
